Molecular target: acetylcholinesterase (AChE)
Experiment: AChE activity in crude mite homogenate supernatant, acetylthiocholine/DTNB assay at […] nm
Format: biochemical, Psoroptes cuniculi

SMILES | IC50 (ppm)
CC1=CC(=O)c2c(O)cccc2C1=O [compound 2, Plumbagin] | 29.87
O=C1C=CC(=O)c2c(O)cccc21 [compound 1, Juglone] | 14.81

From publication PMC5785474, “Application of Sustainable Natural Resources in Agriculture: Acaricidal and Enzyme Inhibitory Activities of Naphthoquinones and Their Analogs against Psoroptes cuniculi” (Scientific Reports, 2018)
